Where a name gives a salt, the structure may show the parent alone.
Biological target: GSK-3β (Homo sapiens, UniProt P49841)
Test: biochemical
Details: not given
Protocol: We evaluated the pharmacological properties of the compounds in vitro against GSK-3β using the GSK-3β Kinase Enzyme System followed by ADP-Glo bioluminescent assay.[50] The principle of the assay is to determine the amount of ADP formed from ATP in the kinase reaction. […] Additionally, compounds 11 and 36 in complex with GSK-3β were analyzed by the proteins’ melting temperature determination using Thermal Shift Assay (see Figure S1 in the SI).
The inhibitory activities of the tested compounds against the GSK-3β human recombinant kinase were measured using Promega’s GSK-3β Kinase Enzyme System (Promega; Madison, WI, USA), according to the provided manufacturer’s instruction, using the low-volume white polystyrene 384-well plates. The ADP-Glo Assay (Promega; Madison, WI, USA) was used for bioluminescent detection of the kinase activity. Tested compounds were prepared as 1 mM stock solutions in DMSO and diluted with the Kinase Assay Buffer before use (40 mM Tris, pH 7.5, enriched with 50 μM dithiothreitol; DTT) to obtain the desired compounds’ concentrations. The kinase enzyme, GSK-3β-substrate (derived from human muscle glycogen synthase 1), and ATP were also diluted in the assay buffer before use. At first, GSK-3β (10 ng per well) was incubated with the tested sample (10 μM in well) for 5 min. In the case of blank wells, the DMSO solution (1% in well) was used instead of the target samples’ solutions. After the incubation period, ATP (25 μM in well) and GSK-3β-substrate (0.2 μg/μL in well) were added to start the enzymatic reaction. The reaction mixture was kept at room temperature for 1 h, followed by the addition of the ADP-Glo reagent, to terminate the kinase reaction and deplete any remaining ATP. After the following 40 min—a second reagent (Kinase Detection Reagent) was applied to convert the obtained ADP to ATP and to generate light from the newly synthesized ATP using a luciferase/luciferin reaction. The mixture was kept for another 30 min at room temperature, then the luminescence was measured. Based on equation 100 – (S/B) × 100 (where S and B were the respective enzyme activities with and without the tested sample, respectively) the percent of inhibition of GSK-3β for each compound was calculated. […] Calculations were made using nonlinear regression (GraphPad Prism 9; GraphPad Software, San Diego, CA, USA) by plotting the residual enzyme activities against the applied inhibitor concentration. […] Each data point was collected in triplicate.

GSK-3β, sequence (P49841 whole entry): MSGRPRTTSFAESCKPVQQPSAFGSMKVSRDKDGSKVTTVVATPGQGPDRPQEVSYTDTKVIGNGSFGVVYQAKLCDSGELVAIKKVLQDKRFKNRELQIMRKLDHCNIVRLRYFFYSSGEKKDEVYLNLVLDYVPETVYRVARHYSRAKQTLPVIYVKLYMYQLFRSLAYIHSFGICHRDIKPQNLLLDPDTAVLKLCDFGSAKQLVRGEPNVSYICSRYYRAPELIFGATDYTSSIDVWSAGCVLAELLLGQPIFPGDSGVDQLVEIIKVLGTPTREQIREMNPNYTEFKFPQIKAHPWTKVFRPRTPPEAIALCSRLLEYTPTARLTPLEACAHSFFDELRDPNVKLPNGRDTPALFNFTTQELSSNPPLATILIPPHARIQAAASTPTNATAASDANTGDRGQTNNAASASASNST

| SMILES | IC50 [nM] |
| --- | --- |
| O=C(Nc1cc(C2=CCN(C[C@@H]3CCCN3)C2)ccn1)C1CC1 [(S)-15, (S)-N-(4-(1-(Pyrrolidin-2-ylmethyl)-2,5-dihydro-1H-pyrrol-3-yl)pyridin-2-yl)cyclopropanecarboxamide Hydrochloride] | 11300 ± 1120 |
| CC(=O)N1CC=C(c2ccnc(NC(=O)C3CC3)c2)C1 [Compound 10, N-(4-(1-Acetyl-2,5-dihydro-1H-pyrrol-3-yl)pyridin-2-yl)cyclopropanecarboxamide] | 599 ± 11 |
| NCCC(=O)N1CC=C(c2ccnc(NC(=O)C3CC3)c2)C1 [Compound 12, N-(4-(1-(3-Aminopropanoyl)-2,5-dihydro-1H-pyrrol-3-yl)pyridin-2-yl)cyclopropanecarboxamide Hydrochloride] | 1360 ± 110 |
| NCCCC(=O)N1CC=C(c2ccnc(NC(=O)C3CC3)c2)C1 [Compound 13, N-(4-(1-(4-Aminobutanoyl)-2,5-dihydro-1H-pyrrol-3-yl)pyridin-2-yl)cyclopropanecarboxamide Hydrochloride] | 5490 ± 363 |
| O=C(Nc1cc(C2=CCN(C(=O)[C@@H]3CCCN3)C2)ccn1)C1CC1 [Compound 14, N-(4-(1-Prolyl-2,5-dihydro-1H-pyrrol-3-yl)pyridin-2-yl)cyclopropanecarboxamide] | 7720 ± 543 |
| CS(=O)(=O)N1CC=C(c2ccnc(NC(=O)C3CC3)c2)C1 [Compound 16, N-(4-(1-(Methylsulfonyl)-2,5-dihydro-1H-pyrrol-3-yl)pyridin-2-yl)cyclopropanecarboxamide] | 6200 ± 163 |
| CCCS(=O)(=O)N1CC=C(c2ccnc(NC(=O)C3CC3)c2)C1 [Compound 17, N-(4-(1-(Propylsulfonyl)-2,5-dihydro-1H-pyrrol-3-yl)pyridin-2-yl)cyclopropanecarboxamide] | 9270 ± 467 |
| O=C(Nc1cc(C2=CCN(S(=O)(=O)C3CCCC3)C2)ccn1)C1CC1 [Compound 18, N-(4-(1-(Cyclopentylsulfonyl)-2,5-dihydro-1H-pyrrol-3-yl)pyridin-2-yl)cyclopropanecarboxamide] | 3250 ± 83 |
| NCCS(=O)(=O)N1CC=C(c2ccnc(NC(=O)C3CC3)c2)C1 [Compound 19, N-(4-(1-((2-Aminoethyl)sulfonyl)-2,5-dihydro-1H-pyrrol-3-yl)pyridin-2-yl)cyclopropanecarboxamide Hydrochloride] | 1370 ± 44 |
| NCCCS(=O)(=O)N1CC=C(c2ccnc(NC(=O)C3CC3)c2)C1 [Compound 20, N-(4-(1-((3-Aminopropyl)sulfonyl)-2,5-dihydro-1H-pyrrol-3-yl)pyridin-2-yl)cyclopropanecarboxamide Hydrochloride] | 9990 ± 406 |
| N#Cc1ccc(-c2ccnc(NC(=O)C3CC3)c2)cc1 [Compound 22, N-(4-(4-Cyanophenyl)pyridin-2-yl)cyclopropanecarboxamide] | 1130 ± 37 |
| N#Cc1cccc(-c2ccnc(NC(=O)C3CC3)c2)c1 [Compound 23, N-(4-(3-Cyanophenyl)pyridin-2-yl)cyclopropanecarboxamide] | 952 ± 21 |
| N#Cc1ccc(-c2ccnc(NC(=O)C3CC3)c2)cn1 [Compound 24, N-(6-Cyano-[3,4′-bipyridin]-2′-yl)cyclopropanecarboxamide] | 212 ± 7 |
| N#Cc1ccc(-c2ccnc(NC(=O)C3CC3)c2)s1 [Compound 26, N-(4-(5-Cyanothiophen-2-yl)pyridin-2-yl)cyclopropanecarboxamide] | 146 ± 5 |
| O=C(Nc1cc(-c2ccc(-c3ncon3)cc2)ccn1)C1CC1 [Compound 32, N-(4-(4-(1,2,4-Oxadiazol-3-yl)phenyl)pyridin-2-yl)cyclopropanecarboxamide] | 257 ± 5 |
| O=C(Nc1cc(-c2cccc(-c3ncon3)c2)ccn1)C1CC1 [Compound 33, N-(4-(3-(1,2,4-Oxadiazol-3-yl)phenyl)pyridin-2-yl)cyclopropanecarboxamide] | 898 ± 32 |
| O=C(Nc1cc(-c2ccc(-c3ncon3)nc2)ccn1)C1CC1 [Compound 34, N-(6-(1,2,4-Oxadiazol-3-yl)-[3,4′-bipyridin]-2′-yl)cyclopropanecarboxamide] | 185 ± 3 |
| O=C(Nc1cc(-c2ccnc(-c3ncon3)c2)ccn1)C1CC1 [Compound 35, N-(2′-(1,2,4-Oxadiazol-3-yl)-[4,4′-bipyridin]-2-yl)cyclopropanecarboxamide] | 809 ± 28 |
| O=C(Nc1cc(-c2ccc(-c3ccccc3)s2)ccn1)C1CC1 [Compound 37, N-(4-(5-Phenylthiophen-2-yl)pyridin-2-yl)cyclopropanecarboxamide] | 5220 ± 301 |

Same assay, conditions: read-out: Percent of enzyme inhibition at 10 μM of inhibitor concentration

| SMILES | inhibition at 10 µM [%] |
| --- | --- |
| O=C(Nc1cc(C2=CCN(C[C@H]3CCCN3)C2)ccn1)C1CC1 [(R)-15, (R)-N-(4-(1-(Pyrrolidin-2-ylmethyl)-2,5-dihydro-1H-pyrrol-3-yl)pyridin-2-yl)cyclopropanecarboxamide hydrochloride] | 17.8 ± 1.7 |
| N#Cc1cc(-c2ccnc(NC(=O)C3CC3)c2)ccn1 [Compound 25, N-(2′-Cyano-[4,4′-bipyridin]-2-yl)cyclopropanecarboxamide] | 34.4 ± 2.8 |

Test system: BV-2 cell line
Test: NO release in LPS-treated BV-2 cells (DAN fluorometric assay)
Format: cell-based, mouse
Details: compound 0.1, 1, 10 μM; LPS 100 ng/mL
Protocol: Cell viability was determined by Presto Blue assay after 24 h. (B) Effect of compounds 11, 34, and 36 (0.1, 1, 10 μM) on NO-release (%) in LPS-treated (100 ng/mL) BV-2 cell line. NO-release was measured using a fluorometric assay with 2,3-diaminonaphthalene (DAN). (C, D) Effects of compounds 11 and 36 (0.1, 1, 10 μM) on IL-6 and TNF-α release in LPS-treated (100 ng/mL) BV-2 cell line. The IL-6 and TNF-α levels were measured using LANCE Ultra TR-FRET Detection Kit (PerkinElmer). Statistical analysis was performed using GraphPad Prism 9.0.0. All values are expressed as mean with SD. Differences among groups were evaluated by one-way ANOVA followed by posthoc analysis (Dunnett’s multiple comparison tests) vs. control group (LPS on BV-2 cells and okadaic acid on HT-22 cells) and were considered statistically significant if p < 0.05 (*p < 0.05, **p < 0.01, ***p < 0.001, and ****p < 0.0001).
An important role in the pathogenesis of AD has been attributed to neuroinflammation resulting from the activation of astrocytes and microglial cells.[55] These processes lead to increased production of proinflammatory cytokines such as TNF-α or IL-6 that activate processes, e.g., tau hyperphosphorylation, causing injury and cell death.[56] A standard model of neuroinflammation is based on lipopolysaccharide-stimulated BV-2 microglial cells. In this study, we used this model to evaluate the anti-inflammatory properties of compounds 11, 34, and 36.[57] Our evaluation focused on monitoring the levels of key inflammatory markers, including nitric oxide (NO, Figure 6B) and cytokines, TNF-α and IL-6 (Figure 6C,D).
The cells were pretreated with tested compounds for 1 h. […]
The NO level in the culture supernatants was measured using 2,3-diaminonaphthalene (DAN) reagent according to the method of Nussler et al.[88] After 15 min of incubation at room temperature, the fluorescence intensity (EX 360; EM 440 nm) was measured using a microplate reader POLARstar Omega, (BMG Labtech). The values of nitric oxide were calculated as a percentage of control (maximal response of LPS).

| SMILES | impact on NO release |
| --- | --- |
| O=C(Nc1cc(-c2ccc(-c3ncon3)nc2)ccn1)C1CC1 [Compound 34, N-(6-(1,2,4-Oxadiazol-3-yl)-[3,4′-bipyridin]-2′-yl)cyclopropanecarboxamide] | did not show any impact |

Test system: not listed separately
Test: Cytotoxicity in BV-2 cells (PrestoBlue)
Details: mouse, BV-2 microglial cells
Protocol: (§1) The compounds were tested at 5 concentrations (0.1, 1, 10, 50, and 100 μM).
Mouse microglial cells (BV-2) were a generous gift from Professor Bozena Kaminska-Kaczmarek of the Laboratory of Molecular Neurobiology, Neurobiology Center, Nencki Institute of Experimental Biology, Polish Academy of Sciences, Warsaw, Poland. Cells were cultured in Dulbecco’s modified Eagle’s Medium-high glucose (DMEM, Glutamax Thermo Fisher) supplemented with 10% heat-inactivated fetal bovine serum (Thermo Fisher), 100 IU/mL penicillin (Merck) and 100 μg/mL streptomycin (Merck). Cells were cultured in flasks (area 175 cm^2, Nunc), and incubated at 37 °C, 5% CO2. To evaluate the level of NO, IL-6, and TNF-α and the effectiveness of the compounds tested, BV-2 microglia cells were cultured in a 96-well culture plate (5 × 10^4 cells per well, Falcon). For the measurement of cell viability and cell membrane damage, cells were placed in a 96-well culture plate (2 × 10^4 cells per well, Falcon). Before the tests, cells were grown for 24 h in the incubator (37 °C, 5% CO2).
(§2) Cell viability was evaluated using the PrestoBlue reagent (ThermoFisher), according to the manufacturer’s procedures.[87] Following 24 h of incubation with the tested molecule, PrestoBlue reagent was added to a microplate well in an amount equal to one-tenth of the remaining medium volume. The resulting mixture was incubated for 15 min at 37 °C, and the fluorescence intensity (EX 530 nm; EM 580 nm) was measured in the plate reader POLARstar Omega, (BMG Labtech).

| SMILES | IC50 at 24 h [nM] |
| --- | --- |
| O=C(Nc1cc(-c2ccc(-c3ncon3)nc2)ccn1)C1CC1 [Compound 34, N-(6-(1,2,4-Oxadiazol-3-yl)-[3,4′-bipyridin]-2′-yl)cyclopropanecarboxamide] | 39200 ± 5200 |

Test system: HT-22 cells
Test: Cytotoxicity in HT-22 cells (PrestoBlue)
Details: whole range of concentrations 0.1–100 μM
Protocol: as §1
(§3) Mouse Hippocampal Neuronal Cell Line (HT-22) was a generous gift from Dr Bartosz Pomierny of the Department of Biochemical Toxicology, Jagiellonian University Medical College, Krakow, Poland. Cells were cultured in Dulbecco’s modified Eagle’s Medium—high glucose (DMEM, Glutamax Thermo Fisher) supplemented with 10% heat-inactivated fetal bovine serum (Thermo Fisher), 100 IU/mL penicillin (Merck) and 100 μg/mL streptomycin (Merck). Cells were cultured in flasks (area 175 cm^2, Nunc), and incubated at 37 °C, 5% CO2. For the measurement of cell viability and neuroprotective effect against okadaic acid cells were placed in a 96-well culture plate (2 × 10^4 cells per well, Falcon). Before the tests, cells were grown for 24 h in the incubator (37 °C, 5% CO2).
as §2

| SMILES | cell viability in HT-22 cells |
| --- | --- |
| O=C(Nc1cc(-c2ccc(-c3ncon3)nc2)ccn1)C1CC1 [Compound 34, N-(6-(1,2,4-Oxadiazol-3-yl)-[3,4′-bipyridin]-2′-yl)cyclopropanecarboxamide] | No significant decrease in cell viability |

Test system: not listed separately
Test: Cytotoxicity in HT-22 cells (PrestoBlue)
Details: mouse, HT-22 hippocampal neuronal cells
Protocol: as §1, §3, §2

| SMILES | IC50 at 24 h [nM] |
| --- | --- |
| O=C(Nc1cc(-c2ccc(-c3ncon3)nc2)ccn1)C1CC1 [Compound 34, N-(6-(1,2,4-Oxadiazol-3-yl)-[3,4′-bipyridin]-2′-yl)cyclopropanecarboxamide] | > 100000 |
